PubChem BioAssay (NCI)
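Grown in 96-well plates, cells were treated for 48 hours with each compound at five concentrations. Insufficient inhibition: endpoint recorded as highest concentration tested. GI50: concentration for 50% inhibition of growth. At the TGI there is no net growth.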

How the values were obtained:
Assay in all cases: DTP human tumour cell line panel, 48 h
[1] = system: 786-0 renal
[2] = system: CAKI-1 renal
[3] = system: CCRF-CEM leukemia
[4] = system: HCC-2998 colon
[5] = system: HCT-116 colon
[6] = system: HOP-92 NSCLC
[7] = system: K-562 leukemia
[8] = system: SK-MEL-5 melanoma
[9] = system: SR leukemia
[10] = system: NCI/ADR-RES ovarian

| Compound | TGI [1] | TGI [2] | TGI [3] | TGI [4] | TGI [5] | TGI [6] | TGI [7] | TGI [8] | TGI [9] | TGI [10] | GI50 [1] | GI50 [2] | GI50 [3] | GI50 [4] | GI50 [5] | GI50 [6] | GI50 [7] | GI50 [10] | GI50 [8] |
| --- | --- | --- | --- | --- | --- | --- | --- | --- | --- | --- | --- | --- | --- | --- | --- | --- | --- | --- | --- |
| S=c1[nH]c(=S)c2nnn(-c3ccccc3)c2[nH]1 | > 100 µM | > 100 µM | > 100 µM | > 100 µM | 4.49 µM | > 100 µM | > 100 µM | > 100 µM | > 100 µM | – | – | – | – | – | – | – | – | – | – |
| COC(=O)/C=C/c1c(CC=C(C)C)ncn1C | > 100 µM | > 100 µM | > 100 µM | > 100 µM | > 100 µM | > 100 µM | > 100 µM | > 100 µM | > 100 µM | – | – | – | – | – | – | – | – | – | – |
| NCCSc1nc(-c2ccccc2)c(-c2ccccc2)o1 | > 100 µM | > 100 µM | – | – | > 100 µM | > 100 µM | > 100 µM | > 100 µM | > 100 µM | > 100 µM | – | – | – | – | – | – | – | – | – |
| CCCN1CN(C(C(=O)N[C@@H]2C(=O)N3C2SC(C)(C)C3C(=O)O)c2ccc(O)cc2)CSC1=S (stereo not given in full) | > 100 µM | > 100 µM | > 100 µM | – | > 100 µM | > 100 µM | > 100 µM | > 100 µM | – | – | – | – | – | – | – | – | – | – | – |
| Cc1cccc(C)c1NC(=O)C(=O)C(C(=O)c1ccccc1-c1ccccc1)C1OC(=O)c2ccccc21 (stereo not given) | 37 µM | – | > 100 µM | 29.7 µM | 27.8 µM | 40 µM | > 100 µM | 33.7 µM | – | – | – | – | – | – | – | – | – | – | – |
| c1ccc2nc3c(nc2c1)sc1ccccc13 | 64.2 µM | 30.2 µM | > 100 µM | > 100 µM | > 100 µM | – | > 100 µM | > 100 µM | > 100 µM | > 100 µM | – | – | – | – | – | – | – | – | – |
| Cc1nc2sc3c(c2c(=O)[nH]1)CCCC3 | > 100 µM | > 100 µM | – | – | > 100 µM | > 100 µM | > 100 µM | > 100 µM | 81.1 µM | > 100 µM | – | – | – | – | – | – | – | – | – |
| CN[C@@H](C)[C@@H](NC)c1ccccc1 | > 100 µM | > 100 µM | > 100 µM | > 100 µM | > 100 µM | > 100 µM | > 100 µM | > 100 µM | – | – | – | – | – | – | – | – | – | – | – |
| CC(C)C(=O)Nc1nc2c(ncn2C2OC(CO)C(O)C2O)c(=O)[nH]1 (stereo not given) | > 100 µM | > 100 µM | > 100 µM | > 100 µM | > 100 µM | > 100 µM | > 100 µM | > 100 µM | > 100 µM | – | – | – | – | – | – | – | – | – | – |
| Cc1nc(-[n+]2nc(-c3ccncc3)nn2-c2ccccc2)sc1C | > 100 µM | > 100 µM | > 100 µM | > 100 µM | > 100 µM | – | > 100 µM | > 100 µM | > 100 µM | > 100 µM | – | – | – | – | – | – | – | – | – |
| O=[N+]([O-])c1ccc(N2N=C(c3ccc(NCc4nc5ccccc5[nH]4)cc3)CC2c2ccco2)cc1 (stereo not given) | > 100 µM | > 100 µM | > 100 µM | 94.1 µM | 57.3 µM | > 100 µM | > 100 µM | 31.9 µM | 33.8 µM | – | – | – | – | – | – | – | – | – | – |
| O=C1c2ccccc2-c2c1c1ccccc1c(=O)n2CCCCl | 18.2 µM | 19.1 µM | > 100 µM | 96.6 µM | 17.8 µM | 43.3 µM | > 100 µM | > 100 µM | – | 73.3 µM | 4.86 µM | 3.63 µM | 3.86 µM | 10.4 µM | 3.65 µM | 16.8 µM | 12.7 µM | 16.9 µM | 5.92 µM |
